Experiments:
[1] = target: Dual specificity mitogen-activated protein kinase kinase 6 (Homo sapiens) (UniProt P52564); details: Compound concentration 1000.0 nM
[2] = target: Tyrosine-protein kinase ABL1 (Homo sapiens) (UniProt P00519); details: Compound concentration 1000.0 nM
[3] = target: Ephrin type-A receptor 7 (Homo sapiens) (UniProt Q15375); details: Compound concentration 1000.0 nM
[4] = target: Serine/threonine-protein kinase MAK (Homo sapiens) (UniProt P20794); details: Compound concentration 1000.0 nM
[5] = tested on: Receptor-type tyrosine-protein kinase FLT3 (Homo sapiens), P36888 [UNDEFINED MUTATION]; details: Compound concentration 1000.0 nM
[6] = target: T1, Muscarinic acetylcholine receptor M2 (Homo sapiens) (UniProt P08172); details: Compound concentration 10.0 uM
T1 sequence (whole entry): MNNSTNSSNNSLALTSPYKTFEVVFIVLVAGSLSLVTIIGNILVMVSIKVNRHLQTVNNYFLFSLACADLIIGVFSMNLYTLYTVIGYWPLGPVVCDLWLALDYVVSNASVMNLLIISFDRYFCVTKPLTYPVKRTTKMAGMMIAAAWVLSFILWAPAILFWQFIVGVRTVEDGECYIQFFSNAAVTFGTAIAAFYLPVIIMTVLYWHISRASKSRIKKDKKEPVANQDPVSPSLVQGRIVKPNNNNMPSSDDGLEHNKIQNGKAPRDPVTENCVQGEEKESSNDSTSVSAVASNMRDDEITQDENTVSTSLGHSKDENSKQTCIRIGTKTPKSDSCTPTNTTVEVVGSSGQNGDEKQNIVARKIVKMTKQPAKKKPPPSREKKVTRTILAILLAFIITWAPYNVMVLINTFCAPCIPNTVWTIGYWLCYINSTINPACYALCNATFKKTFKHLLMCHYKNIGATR

[7] = tested on: eIF-2-alpha kinase GCN2 (Homo sapiens), Q9P2K8 [S808G]; details: Compound concentration 1000.0 nM
[8] = target: Tyrosine-protein kinase Lck (Homo sapiens) (UniProt P06239); details: Compound concentration 1000.0 nM
[9] = target: T2, 5-hydroxytryptamine receptor 2C (Homo sapiens) (UniProt P28335); details: Compound concentration 10.0 uM
T2 sequence (whole entry): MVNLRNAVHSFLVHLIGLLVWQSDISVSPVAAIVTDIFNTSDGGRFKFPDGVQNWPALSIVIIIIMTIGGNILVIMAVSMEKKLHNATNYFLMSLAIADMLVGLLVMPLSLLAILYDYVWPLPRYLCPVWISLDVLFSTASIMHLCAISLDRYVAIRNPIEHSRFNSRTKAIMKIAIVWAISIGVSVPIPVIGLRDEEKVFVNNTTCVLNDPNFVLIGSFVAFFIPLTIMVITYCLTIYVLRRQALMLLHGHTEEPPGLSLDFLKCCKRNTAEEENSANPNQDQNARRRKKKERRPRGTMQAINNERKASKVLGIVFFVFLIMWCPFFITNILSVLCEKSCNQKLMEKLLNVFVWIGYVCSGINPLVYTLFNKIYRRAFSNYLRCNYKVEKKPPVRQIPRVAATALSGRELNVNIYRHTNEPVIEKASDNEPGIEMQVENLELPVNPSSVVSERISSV

[10] = target: D(4) dopamine receptor (Homo sapiens) (UniProt P21917); details: Compound concentration 10.0 uM
[11] = target: Inhibitor of nuclear factor kappa-B kinase subunit alpha (Homo sapiens) (UniProt O15111); details: Compound concentration 1000.0 nM
[12] = target: Serine/threonine-protein kinase Nek9 (Homo sapiens) (UniProt Q8TD19); details: Compound concentration 1000.0 nM
[13] = target: Sodium-dependent dopamine transporter (Homo sapiens) (UniProt Q01959); details: Compound concentration 10.0 uM
[14] = tested on: Phosphatidylinositol 4,5-bisphosphate 3-kinase catalytic subunit alpha isoform (Homo sapiens), P42336 [H1047Y]; details: Compound concentration 1000.0 nM
[15] = tested on: Phosphatidylinositol 4,5-bisphosphate 3-kinase catalytic subunit alpha isoform (Homo sapiens), P42336 [C420R]; details: Compound concentration 1000.0 nM
[16] = target: Sodium- and chloride-dependent GABA transporter 1 (Rattus norvegicus) (UniProt P23978); experiment: GABA transporter Eurofins-Cerep binding assay; parameters: ligand concentration 10 nM; details: filed as antagonist, Compound concentration 10.0 uM
[17] = target: Serine/threonine-protein kinase MRCK gamma (Homo sapiens) (UniProt Q6DT37); details: Compound concentration 1000.0 nM
[18] = tested on: Epidermal growth factor receptor (Homo sapiens), P00533 [UNDEFINED MUTATION]; details: Compound concentration 1000.0 nM
[19] = target: 5-hydroxytryptamine receptor 6 (Homo sapiens) (UniProt P50406); details: Compound concentration 10.0 uM
[20] = target: Rho-associated protein kinase 1 (Homo sapiens) (UniProt Q13464); details: Compound concentration 1000.0 nM
[21] = target: 5-hydroxytryptamine receptor 5A (Homo sapiens) (UniProt P47898); details: Compound concentration 10.0 uM
[22] = target: Serine/threonine-protein kinase Nek11 (Homo sapiens) (UniProt Q8NG66); details: Compound concentration 1000.0 nM
[23] = target: Cyclin-dependent kinase 7 (Homo sapiens) (UniProt P50613); details: Compound concentration 1000.0 nM
[24] = target: Histamine H3 receptor (Homo sapiens) (UniProt Q9Y5N1); details: Compound concentration 10.0 uM
[25] = target: Sodium-dependent serotonin transporter (Homo sapiens) (UniProt P31645); details: Compound concentration 10.0 uM
[26] = target: 5-hydroxytryptamine receptor 1E (Homo sapiens) (UniProt P28566); details: Compound concentration 10.0 uM

Chain of Epidermal growth factor receptor (Homo sapiens), P00533 [UNDEFINED MUTATION] (P00533 whole entry, looked up, change not shown): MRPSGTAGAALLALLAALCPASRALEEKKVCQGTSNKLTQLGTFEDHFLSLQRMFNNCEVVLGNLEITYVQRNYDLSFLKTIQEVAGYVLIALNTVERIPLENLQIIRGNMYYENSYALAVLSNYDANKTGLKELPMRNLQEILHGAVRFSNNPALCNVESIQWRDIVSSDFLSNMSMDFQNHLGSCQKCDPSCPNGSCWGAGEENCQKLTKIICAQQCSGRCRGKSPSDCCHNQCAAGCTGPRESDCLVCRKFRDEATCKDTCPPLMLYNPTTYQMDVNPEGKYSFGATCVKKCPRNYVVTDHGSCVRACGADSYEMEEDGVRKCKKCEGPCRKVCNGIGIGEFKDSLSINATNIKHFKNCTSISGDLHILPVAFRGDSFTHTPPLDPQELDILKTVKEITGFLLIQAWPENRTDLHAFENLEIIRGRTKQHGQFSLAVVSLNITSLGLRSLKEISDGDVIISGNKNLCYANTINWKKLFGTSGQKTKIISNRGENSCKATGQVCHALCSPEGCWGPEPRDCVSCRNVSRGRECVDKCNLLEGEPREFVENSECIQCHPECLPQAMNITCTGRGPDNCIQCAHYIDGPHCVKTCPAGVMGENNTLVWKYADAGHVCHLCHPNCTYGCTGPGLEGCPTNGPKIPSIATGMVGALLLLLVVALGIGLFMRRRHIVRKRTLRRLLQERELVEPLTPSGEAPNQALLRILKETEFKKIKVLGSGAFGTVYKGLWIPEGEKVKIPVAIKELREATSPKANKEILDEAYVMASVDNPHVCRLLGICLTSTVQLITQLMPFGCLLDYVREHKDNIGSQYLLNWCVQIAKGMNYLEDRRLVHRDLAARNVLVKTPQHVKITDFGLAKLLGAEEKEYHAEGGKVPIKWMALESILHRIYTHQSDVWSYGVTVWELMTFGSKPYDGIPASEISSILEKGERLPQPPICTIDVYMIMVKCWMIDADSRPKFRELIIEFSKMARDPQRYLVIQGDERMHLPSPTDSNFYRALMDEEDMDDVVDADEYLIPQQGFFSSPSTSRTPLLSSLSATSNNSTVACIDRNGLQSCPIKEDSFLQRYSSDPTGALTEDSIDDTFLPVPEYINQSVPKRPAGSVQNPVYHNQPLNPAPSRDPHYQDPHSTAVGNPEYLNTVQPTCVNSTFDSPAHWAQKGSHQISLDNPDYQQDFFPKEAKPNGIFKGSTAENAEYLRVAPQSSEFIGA
Chain of Tyrosine-protein kinase Lck (Homo sapiens) (P06239 2-509 limits assumed): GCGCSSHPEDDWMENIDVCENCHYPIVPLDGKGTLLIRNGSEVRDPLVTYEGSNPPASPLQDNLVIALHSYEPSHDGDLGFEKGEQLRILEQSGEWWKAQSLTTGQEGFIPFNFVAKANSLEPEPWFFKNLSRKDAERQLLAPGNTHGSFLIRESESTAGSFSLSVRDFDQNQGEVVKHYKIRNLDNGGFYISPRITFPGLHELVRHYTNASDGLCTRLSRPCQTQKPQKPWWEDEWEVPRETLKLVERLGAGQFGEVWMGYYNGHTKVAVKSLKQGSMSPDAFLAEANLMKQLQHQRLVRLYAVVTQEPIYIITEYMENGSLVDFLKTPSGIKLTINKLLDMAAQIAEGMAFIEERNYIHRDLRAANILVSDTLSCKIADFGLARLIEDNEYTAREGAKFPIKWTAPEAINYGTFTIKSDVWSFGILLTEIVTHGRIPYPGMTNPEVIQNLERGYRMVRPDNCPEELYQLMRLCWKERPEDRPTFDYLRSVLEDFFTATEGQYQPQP
Chain of Cyclin-dependent kinase 7 (Homo sapiens) (P50613 whole entry): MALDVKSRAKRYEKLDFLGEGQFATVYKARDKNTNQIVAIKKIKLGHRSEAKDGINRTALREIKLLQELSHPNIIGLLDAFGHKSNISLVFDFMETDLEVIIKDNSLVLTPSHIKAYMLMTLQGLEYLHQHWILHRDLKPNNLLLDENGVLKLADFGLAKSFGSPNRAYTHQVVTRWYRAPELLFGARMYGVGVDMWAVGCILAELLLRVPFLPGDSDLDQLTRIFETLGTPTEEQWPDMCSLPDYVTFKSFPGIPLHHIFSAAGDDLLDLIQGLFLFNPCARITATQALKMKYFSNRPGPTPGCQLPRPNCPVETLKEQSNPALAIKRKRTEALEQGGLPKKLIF
Chain of Receptor-type tyrosine-protein kinase FLT3 (Homo sapiens), P36888 [UNDEFINED MUTATION] (P36888 whole entry, looked up, change not shown): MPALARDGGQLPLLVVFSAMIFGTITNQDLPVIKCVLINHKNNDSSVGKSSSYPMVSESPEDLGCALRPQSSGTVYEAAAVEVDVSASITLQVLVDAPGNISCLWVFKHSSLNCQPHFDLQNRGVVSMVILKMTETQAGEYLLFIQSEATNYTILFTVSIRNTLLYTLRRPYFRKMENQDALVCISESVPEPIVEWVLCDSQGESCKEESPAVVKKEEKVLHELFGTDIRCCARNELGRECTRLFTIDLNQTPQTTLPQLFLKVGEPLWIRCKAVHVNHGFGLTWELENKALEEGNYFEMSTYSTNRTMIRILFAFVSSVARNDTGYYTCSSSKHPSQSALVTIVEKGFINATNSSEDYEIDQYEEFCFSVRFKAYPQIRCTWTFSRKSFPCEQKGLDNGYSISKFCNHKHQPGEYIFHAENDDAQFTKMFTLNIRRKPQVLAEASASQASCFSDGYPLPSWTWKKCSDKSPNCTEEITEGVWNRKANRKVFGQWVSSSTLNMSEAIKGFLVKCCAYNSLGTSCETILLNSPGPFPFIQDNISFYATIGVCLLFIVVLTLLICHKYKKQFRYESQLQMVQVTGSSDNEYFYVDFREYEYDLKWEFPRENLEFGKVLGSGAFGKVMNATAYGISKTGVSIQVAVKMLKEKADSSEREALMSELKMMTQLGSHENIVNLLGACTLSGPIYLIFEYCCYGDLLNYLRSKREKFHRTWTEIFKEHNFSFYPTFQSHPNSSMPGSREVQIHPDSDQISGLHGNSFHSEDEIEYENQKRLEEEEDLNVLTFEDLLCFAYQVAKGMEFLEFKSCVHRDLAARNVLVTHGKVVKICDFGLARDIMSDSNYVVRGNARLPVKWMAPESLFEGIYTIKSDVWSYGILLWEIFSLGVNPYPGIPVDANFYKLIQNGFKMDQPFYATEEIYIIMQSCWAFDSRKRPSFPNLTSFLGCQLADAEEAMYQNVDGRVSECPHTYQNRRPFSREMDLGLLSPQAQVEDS
Chain of Phosphatidylinositol 4,5-bisphosphate 3-kinase catalytic subunit alpha isoform (Homo sapiens), P42336 [H1047Y] (P42336 whole entry H1047Y, canonical isoform): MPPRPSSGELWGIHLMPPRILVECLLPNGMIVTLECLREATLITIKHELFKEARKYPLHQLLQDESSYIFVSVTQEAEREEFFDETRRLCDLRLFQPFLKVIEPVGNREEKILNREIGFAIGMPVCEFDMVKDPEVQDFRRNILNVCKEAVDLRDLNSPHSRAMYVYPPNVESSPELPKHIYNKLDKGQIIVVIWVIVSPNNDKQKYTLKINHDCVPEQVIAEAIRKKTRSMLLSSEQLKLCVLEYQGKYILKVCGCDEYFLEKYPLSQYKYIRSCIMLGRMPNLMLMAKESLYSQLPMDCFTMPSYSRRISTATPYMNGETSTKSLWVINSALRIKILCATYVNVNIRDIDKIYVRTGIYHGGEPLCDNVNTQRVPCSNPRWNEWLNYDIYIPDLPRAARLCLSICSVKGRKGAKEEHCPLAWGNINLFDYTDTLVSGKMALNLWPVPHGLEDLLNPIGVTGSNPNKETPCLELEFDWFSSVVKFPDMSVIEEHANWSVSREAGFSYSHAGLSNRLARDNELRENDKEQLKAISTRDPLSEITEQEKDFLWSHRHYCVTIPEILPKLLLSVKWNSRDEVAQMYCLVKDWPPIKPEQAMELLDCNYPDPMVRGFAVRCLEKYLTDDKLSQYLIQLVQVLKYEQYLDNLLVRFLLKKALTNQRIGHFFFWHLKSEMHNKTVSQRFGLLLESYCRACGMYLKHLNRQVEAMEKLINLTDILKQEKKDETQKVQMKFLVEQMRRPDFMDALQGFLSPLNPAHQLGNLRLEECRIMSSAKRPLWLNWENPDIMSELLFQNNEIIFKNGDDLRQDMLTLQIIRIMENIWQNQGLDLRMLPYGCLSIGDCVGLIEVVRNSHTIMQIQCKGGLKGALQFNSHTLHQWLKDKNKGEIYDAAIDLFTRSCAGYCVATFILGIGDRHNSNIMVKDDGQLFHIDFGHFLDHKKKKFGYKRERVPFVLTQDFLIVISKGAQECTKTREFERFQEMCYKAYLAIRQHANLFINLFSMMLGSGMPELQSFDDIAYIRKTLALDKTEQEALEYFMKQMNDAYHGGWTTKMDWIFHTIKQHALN
Chain of Dual specificity mitogen-activated protein kinase kinase 6 (Homo sapiens) (P52564 whole entry): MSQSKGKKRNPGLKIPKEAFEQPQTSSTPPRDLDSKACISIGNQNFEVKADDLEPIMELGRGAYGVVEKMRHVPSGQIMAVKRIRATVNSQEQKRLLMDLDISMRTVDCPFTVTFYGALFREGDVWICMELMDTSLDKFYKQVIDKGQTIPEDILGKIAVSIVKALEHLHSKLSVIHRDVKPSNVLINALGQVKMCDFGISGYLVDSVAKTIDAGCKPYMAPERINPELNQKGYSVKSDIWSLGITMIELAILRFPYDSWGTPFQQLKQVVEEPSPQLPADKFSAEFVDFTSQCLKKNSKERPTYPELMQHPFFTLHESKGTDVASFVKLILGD

COc1ccc2c(c1)O[C@@H](c1ccc(OC)c(OC)c1)C[C@H]2NC(=O)C1(c2ccc3c(c2)OC(F)(F)O3)CC1 [A-1596586]
inactive: residual activity [1] 100% | residual activity [2] 86% | residual activity [3] 86% | residual activity [4] 93% | residual activity [5] 76% | inhibition [6] -9.38% | residual activity [7] 95% | residual activity [8] 100% | inhibition [9] -2.28% | inhibition [10] -7.47% | residual activity [11] 95% | residual activity [12] 100% | inhibition [13] 6.33% | residual activity [14] 77% | residual activity [15] 86% | residual activity [17] 89% | residual activity [18] 68% | inhibition [19] -7.58% | residual activity [20] 89% | inhibition [21] -7.95% | residual activity [22] 83% | residual activity [23] 80%
-17.9%: % Inhibition of Control Specific Binding (Mean n=2) [16]

COc1ccc2c(c1)O[C@H](c1ccc(OC)c(OC)c1)C[C@@H]2NC(=O)C1(c2ccc3c(c2)OC(F)(F)O3)CC1 [A-1596584]
-15.1%: % Inhibition of Control Specific Binding (Mean n=2) [16]
inactive: residual activity [1] 100% | residual activity [2] 100% | inhibition [24] 10.4% | residual activity [3] 100% | residual activity [4] 95% | residual activity [5] 87% | residual activity [7] 97% | residual activity [8] 100% | inhibition [25] 5.75% | inhibition [10] -6.5% | residual activity [11] 89% | residual activity [12] 100% | inhibition [26] 1.27% | residual activity [14] 100% | residual activity [15] 91% | residual activity [17] 89% | residual activity [18] 64% | residual activity [20] 84% | residual activity [22] 88% | residual activity [23] 85%

Source: ChEMBL document CHEMBL4507262, “Data for DCP probe A-1596586” (2021)
